“Also recorded” adds a separate entry of the source.
Experiments:
[1] = test system: experimental autoimmune encephalomyelitis (EAE) provoked by myelin oligodendrocyte glycoprotein (MOG); assay: CR EAE provoked by MOG in mice, s.c. treatment; assay type: in vivo; conditions: for ASC (treatment from day 5 to day 22): HMW Zn-HA 10 mg/kg, ZnCl2 equivalent to 0.8 mg/kg Zn2+; for Effect on the EAE model (in words): mice
Text: The only adequate and widely used model available for purposes of preclinical investigations of multiple sclerosis is the experimental autoimmune encephalomyelitis (EAE) (Mokhatarian et al., Nature 309, 356-358. (1984); Raine et al., Lab. Invest. 31, 369-380. (1974)), an inflammatory disease of the central nervous system transmitted by CD4^+ T-lymphocytes. Although the clinical complexity of the model is moderate compared with the disease investigated, its use is unavoidable in a research aimed at MS. Preclinical tests of Copolymer-1 (Copaxone) and interferon beta-1 already approved for human treatment, as well as those of the new drugs under development were/are carried out using this model (Popovic et al., Ann. Neurol. 51, 215-223. (2001); Stanislaus et al., Neurosci. Lett. 333, 167-170. (2002)). […] That's why in our experiments CR EAE provoked by myelin oligodendrocyte glycoprotein (MOG) in mice has been studied (Amor et al., J. Immunol. 153, 4349-4356. (1994)). In the middle of the 1960s the effect of hyaluronan sodium salt was investigated by Romanian research workers on EAE model.
Next, the possible effect of the HMW Zn-HA (10 mg/kg in 200 μl of physiological saline, subcutane) on the time of appearance of clinical symptoms has been investigated.
Tests were carried out on groups of mice (n=6-10 mice/group) using two types of treatment: (i) prophylactic, wherein administration happens from day 5 to day 22 after inoculation of MOG, or in a single case from day 9-10 to day 28 after that (marked with # in tables 2 and 3); and (ii) therapeutic treatment, wherein administration of the Zn-HA happened from day 13 to day 28 after the EAE had been induced (marked with * in tables 2 and 3).
The mice were given 10 mg/kg HMW Zn-HA s. c. daily and clinical data thereof were obtained from day 10 to day 28 and day 5 to day 22, respectively, after the EAE had been induced. The results were calculated from the average daily clinical data to give the average summed up clinical data (ASC).
In the studies summarized in Tables 1 to 4 each mouse used as EAE model received 200 μl s. c. injection each; the injection contained the active ingredient or the carrier (0.9% sodium chloride aqueous solution). To obtain the doses given in terms of mg/kg bodyweight above solutions of different concentration were prepared as follows: […]

[2] = compared with the sodium-HA salt; cited from earlier work
[3] = target: matrix metalloproteinases, particularly the MMP-9 (Homo sapiens, UniProt P14780); conditions: cited from earlier work
matrix metalloproteinases, particularly the MMP-9, sequence (P14780 94-707): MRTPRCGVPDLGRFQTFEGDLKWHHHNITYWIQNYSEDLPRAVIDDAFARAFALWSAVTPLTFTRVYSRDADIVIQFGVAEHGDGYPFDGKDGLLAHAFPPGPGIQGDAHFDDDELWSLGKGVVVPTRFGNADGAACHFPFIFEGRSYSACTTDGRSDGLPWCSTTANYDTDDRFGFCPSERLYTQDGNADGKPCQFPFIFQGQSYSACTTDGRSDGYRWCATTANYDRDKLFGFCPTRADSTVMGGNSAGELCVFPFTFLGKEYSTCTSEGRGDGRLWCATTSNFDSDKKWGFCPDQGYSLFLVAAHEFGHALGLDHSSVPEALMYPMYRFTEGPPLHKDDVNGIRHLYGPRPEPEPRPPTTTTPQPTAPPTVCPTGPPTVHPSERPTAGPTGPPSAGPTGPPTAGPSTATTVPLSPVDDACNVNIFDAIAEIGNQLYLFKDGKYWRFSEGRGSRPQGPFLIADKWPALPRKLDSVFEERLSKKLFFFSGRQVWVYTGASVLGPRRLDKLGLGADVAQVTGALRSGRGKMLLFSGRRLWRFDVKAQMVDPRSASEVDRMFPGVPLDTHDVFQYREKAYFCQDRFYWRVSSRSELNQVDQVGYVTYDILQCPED

EAE = conditions: rabbits, intramuscularly; cited from earlier work

| Compound | ASC (treatment from day 5 to day 22) [1] | Effect on the EAE model (in words) [1] | Effect on the EAE model (in words) ([1]; listed as Zn^2+) | Antioxidant activity [2] | Inhibitory effect on tissue damaging enzymes (matrix metalloproteinases, particularly the MMP-9) [3] | Effect on development of EAE (in words) (EAE) | Effect on the EAE model (in words) ([1]; listed as Na-HA) | Effect on the EAE model (in words) ([1]; listed as Na-HA salt) | Effect on the EAE model (in words) ([1]; listed as Na-hyaluronan) |
| --- | --- | --- | --- | --- | --- | --- | --- | --- | --- |
| [Cl-].[Cl-].[Zn+2] [ZnCl2, zinc chloride] | 14.2 ± 3.3 | did not show significant effect | ineffective | – | – | – | – | – | – |
| zinc-hyaluronan complex [zinc-HA] | – | – | – | increased antioxidant activity | inhibitory effect | – | – | – | – |
| Na-hyaluronan [HMW Na-HA] | 14.2 ± 1.9 | – | – | – | does not show the latter effect | did not inhibit, but in certain cases did assist the development of EAE | ineffective | ineffective; also recorded: did not show significant effect | didn't exert any influence |
